Results taken from US20250333406A1, “SULFONYL CYCLIC DERIVATIVES, AND COMPOSITIONS AND METHODS THEREOF” (Lysoway Therapeutics, Inc., priority 2023, published 2025).

Tested on: TFEB
Assay: TFEB Nuclear Translocation Assay
Assay type: cell-based
Settings: read-out: EC50 of TFEB activation

SMILES	EC50 [µM]
CC(C)S(=O)(=O)c1ccc(S(=O)(=O)n2nc(N3CCN(c4ncc(Cl)cc4F)CC34CC4)c3c(Cl)cc(F)cc32)s1 [Compound 35, 4-chloro-3-(7-(5-chloro-3-fluoropyridin-2-yl)-4,7-diazaspiro[2.5]octan-4-yl)-6-fluoro-1-((5-(isopropylsulfonyl)thiophen-2-yl)sulfonyl)-1H-indazole]	≤ 1
CC(F)(F)c1ccc(S(=O)(=O)n2nc(N3CCN(c4ncc(F)cn4)CC34CC4)c3c(Cl)cc(F)cc32)cc1 [Compound 91, 4-chloro-1-[4-(1,1-difluoroethyl)phenyl]sulfonyl-6-fluoro-3-[7-(5-fluoropyrimidin-2-yl)-4,7-diazaspiro [2.5]octan-4-yl]indazole]	≤ 1
CC(C)S(=O)(=O)n1ccc(S(=O)(=O)n2nc(N3CCN(c4ncc(F)cn4)CC3(C)C)c3c(Cl)cc(F)cc32)c1 [Compound 185, 4-chloro-6-fluoro-3-[4-(5-fluoropyrimidin-2-yl)-2,2-dimethyl-piperazin-1-yl]-1-(1-isopropylsulfonylpyrrol-3-yl) sulfonyl-indazole]	≤ 1
CC(F)(F)c1ccc(S(=O)(=O)n2nc(N3CCN(C(=O)F)CC34CC4)c3c(Cl)cccc32)cc1 [Compound 127, 4-(4-chloro-1-((4-(1,1-difluoroethyl)phenyl)sulfonyl)-1H-indazol-3-yl)-4,7-diazaspiro [2.5]octane-7-carbonyl fluoride]	≤ 1
CC(C)S(=O)(=O)n1ccc(S(=O)(=O)n2nc(N3CCOCC34CC4)c3c(Cl)cc(F)cc32)c1 [Compound 190, 4-[4-chloro-6-fluoro-1-(1-isopropylsulfonylpyrrol-3-yl)sulfonyl-indazol-3-yl]-7-oxa-4-azaspiro [2.5]octane]	≤ 1
CC(C)S(=O)(=O)n1ccc(S(=O)(=O)n2nc(N3CCN(c4ncc(Cl)cc4F)CC34CC4)c3c(Cl)cc(F)cc32)c1 [Compound 150, 4-chloro-3-(7-(5-chloro-3-fluoropyridin-2-yl)-4,7-diazaspiro [2.5]octan-4-yl)-6-fluoro-1-((1-(isopropylsulfonyl)-1H-pyrrol-3-yl)sulfonyl)-1H-indazole]	≤ 1
CC(C)S(=O)(=O)c1ccc(S(=O)(=O)n2nc(N3CCN(c4ncc(Cl)cc4F)CC34CC4)c3c(F)ccc(F)c32)s1 [Compound 33, 3-[7-(5-chloro-3-fluoro-2-pyridyl)-4,7-diazaspiro [2.5]octan-4-yl]-4,7-difluoro-1-[(5-isopropylsulfonyl-2-thienyl)sulfonyl]indazole]	≤ 1
CC(C)(C)S(=O)(=O)c1ccc(S(=O)(=O)n2nc(N3CCN(c4ccc(F)cn4)CC34CC4)c3c(Cl)cccc32)s1 [Compound 48, 1-[(5-tert-butylsulfonyl-2-thienyl)sulfonyl]-4-chloro-3-[7-(5-fluoro-2-pyridyl)-4,7-diazaspiro [2.5]octan-4-yl]indazole]	≤ 1
CC(C)S(=O)(=O)c1ccc(S(=O)(=O)n2nc(N3CCN(c4ncc(F)cn4)C[C@@H]3C(F)(F)F)c3c(F)cccc32)cc1 [Compound 72, 4-fluoro-3-[(2R)-4-(5-fluoropyrimidin-2-yl)-2-(trifluoromethyl)piperazin-1-yl]-1-(4-isopropylsulfonylphenyl)sulfonyl-indazole]	≤ 1
CC(C)S(=O)(=O)c1ccc(S(=O)(=O)n2nc(N3CCCCC3C3CC3)c3c(Cl)cccc32)cc1 (stereo not drawn) [Compound 63, 4-chloro-3-(2-cyclopropyl-1-piperidyl)-1-(4-isopropylsulfonylphenyl) sulfonyl-indazole]	≤ 1
CC(C)S(=O)(=O)c1ccc(S(=O)(=O)n2nc(N3CCN(C(=O)C(F)F)CC3C(F)(F)F)c3c(Cl)cccc32)cc1 (stereo not drawn) [Compound 74, 1-[4-[4-chloro-1-(4-isopropylsulfonylphenyl)sulfonyl-indazol-3-yl]-3-(trifluoromethyl)piperazin-1-yl]-2,2-difluoro-ethanone]	≤ 1
CC(C)S(=O)(=O)c1ccc(S(=O)(=O)n2nc(N3CCN(c4ncccn4)CC34CC4)c3c(Cl)cccc32)cc1 [Compound 65, 4-chloro-1-(4-isopropylsulfonylphenyl) sulfonyl-3-(7-pyrimidin-2-yl-4,7-diazaspiro[2.5]octan-4-yl) indazole]	≤ 1
CC(C)S(=O)(=O)n1ccc(S(=O)(=O)n2nc(N3CCCC3C(F)(F)F)c3c(Cl)cc(F)cc32)c1 (stereo not drawn) [Compound 184, 4-chloro-6-fluoro-1-(1-isopropylsulfonylpyrrol-3-yl)sulfonyl-3-[2-(trifluoromethyl)pyrrolidin-1-yl]indazole]	≤ 1
CC(C)S(=O)(=O)c1ccc(S(=O)(=O)n2nc(N3CCN(c4ncc(F)cc4F)CC34CC4)c3c(Cl)ccc(F)c32)s1 [Compound 31, 4-chloro-3-(7-(3,5-difluoropyridin-2-yl)-4,7-diazaspiro [2.5]octan-4-yl)-7-fluoro-1-((5-(isopropylsulfonyl)thiophen-2-yl)sulfonyl)-1H-indazole]	≤ 1
CC(F)(F)c1ccc(S(=O)(=O)n2nc(N3CCC4(CCO4)CC34CC4)c3c(Cl)cccc32)cc1 (stereo not drawn) [Compound 88, 11-[4-chloro-1-[4-(1,1-difluoroethyl)phenyl]sulfonyl-indazol-3-yl]-8-oxa-11-azadispiro [2.1.35.33]undecane]	≥ 10
CC(F)(F)c1ccc(S(=O)(=O)n2nc(N3CCN(c4ncc(F)cn4)CC34CC4)c3c(Cl)cccc32)cn1 [Compound 135, 4-chloro-1-[[6-(1,1-difluoroethyl)-3-pyridyl]sulfonyl]-3-[7-(5-fluoropyrimidin-2-yl)-4,7-diazaspiro [2.5]octan-4-yl]indazole]	≤ 1
CC(C)S(=O)(=O)n1ccc(S(=O)(=O)n2nc(N3CCN(c4ncc(Cl)cc4F)CC34CC4)c3c(Cl)cccc32)c1 [Compound 140, 4-chloro-3-[7-(5-chloro-3-fluoro-2-pyridyl)-4,7-diazaspiro [2.5]octan-4-yl]-1-(1-isopropylsulfonylpyrrol-3-yl) sulfonyl-indazole]	≤ 1
O=S(=O)(c1ccc(S(=O)(=O)C(F)(F)F)cc1)n1nc(N2CCN(c3ncc(F)cn3)CC23CC3)c2c(Cl)cccc21 [Compound 52, 4-chloro-3-(7-(5-fluoropyrimidin-2-yl)-4,7-diazaspiro [2.5]octan-4-yl)-1-((4-((trifluoromethyl)sulfonyl)phenyl)sulfonyl)-1H-indazole]	≤ 1
CC(F)(F)c1ccc(S(=O)(=O)n2nc(N3CCN(c4ncc(F)cn4)C[C@@H]3C(C)(C)F)c3c(Cl)cccc32)cc1 (single isomer, unassigned) [Compound 122]	≤ 1
CC(C)(C)c1ncc(S(=O)(=O)n2nc(N3CCN(c4ncc(F)cn4)CC34CC4)c3c(Cl)cccc32)cn1 [Compound 100, 1-(2-tert-butylpyrimidin-5-yl) sulfonyl-4-chloro-3-[7-(5-fluoropyrimidin-2-yl)-4,7-diazaspiro [2.5]octan-4-yl]indazole]	≤ 1
CC(F)(F)c1ccc(S(=O)(=O)n2nc(N3CCN(c4ncc(F)cn4)C[C@H]3C(C)(C)F)c3c(Cl)cccc32)cc1 [Compound 121, (S)-4-chloro-1-((4-(1,1-difluoroethyl)phenyl)sulfonyl)-3-(2-(2-fluoropropan-2-yl)-4-(5-fluoropyrimidin-2-yl)piperazin-1-yl)-1H-indazole]	≤ 1
